Reference: patent US4231928A, “Antibacterial agents” (priority 1979, dated 1980)
≈ marks a conversion by molar mass, not a printed value. Read-outs that look alike come from different tables or passages of the source.

Key:
E. coli Juhl [1] = assay: In vivo activity in experimental infection in mice, E. coli Juhl; conditions: single; for Survival/Tested: 100×LD50 challenge; for ED50: Escherichia coli, sc, dose required to protect 50% of the infected mice, read-out: PD50
Method: (§1) BB-P598 was evaluated in vivo in experimental infections in mice. The pathogenic bacteria employed were P. aeruginosa A9843, E. coli Juhl and S. aureus Smith. Mice were challenged intraperitoneally with a 100×LD50 dose of the pathogens in a 5% suspension of hog gastric mucin. The penicillin was administered subcutaneously as a single treatment, just after the bacterial challenge.
(§2) PD50 = Protective Dose50 , i.e. the dose required to give
(§3) protection to 50% of the infected mice.

E. coli Juhl [2] = assay: MIC of the infecting strain with the in vivo test, E. coli Juhl; type: cell-based; conditions: Escherichia coli, Table 7
S. enteritidis = assay: Tube dilution (Nutrient broth), S. enteritidis; type: cell-based; conditions: Salmonella enterica, Se-1 S. enteritidis A9531, Table 3
Method: (§4) The MIC's of BB-P598 against various organisms were also determined by the tube dilution method (Nutrient broth), and the results, compared with sulbenicillin, are shown in Table 3.

S. marcescens = assay: Tube dilution (Nutrient broth), S. marcescens; type: cell-based; conditions: Serratia marcescens
Method: as §4

S. aureus Smith [3] = assay: MIC of the infecting strain with the in vivo test, S. aureus Smith; type: cell-based; conditions: Staphylococcus aureus, Table 7, read-out: MC
P. aeruginosa = assay: Tube dilution (Nutrient broth), P. aeruginosa; type: cell-based; conditions: Pseudomonas aeruginosa
Method: as §4

P. morganii = assay: Tube dilution (Nutrient broth), P. morganii; type: cell-based; conditions: Morganella morganii
Method: as §4

P. mirabilis = assay: Tube dilution (Nutrient broth), P. mirabilis; type: cell-based; conditions: Proteus mirabilis, Pm-2 P. mirabilis A9900, Table 3
Method: as §4

Pseudomonas aeruginosa = conditions: prior art penicillins; cited from earlier work
D. pneumoniae = assay: Tube dilution (Nutrient broth), D. pneumoniae; type: cell-based; conditions: Streptococcus pneumoniae, Dp-4 D. pneumoniae A9585, Table 3
Method: as §4

P. aeruginosa A9843 [4] = assay: In vivo activity in experimental infection in mice, P. aeruginosa A9843; conditions: single; for Survival/Tested: 100×LD50 challenge; for ED50: Pseudomonas aeruginosa, A9843, sc, dose required to protect 50% of the infected mice, read-out: PD50
Method: as §1, §2, §3

S. aureus Smith [5] = assay: In vivo activity in experimental infection in mice, S. aureus Smith; conditions: single; for Survival/Tested: 100×LD50 challenge; for ED50: Staphylococcus aureus, sc, dose required to protect 50% of the infected mice, read-out: PD50
Method: as §1, §2, §3

P. aeruginosa A9843 [6] = assay: MIC of the infecting strain with the in vivo test, P. aeruginosa A9843; type: cell-based; conditions: Pseudomonas aeruginosa, Table 7
S. aureus = assay: Tube dilution (Nutrient broth), S. aureus; type: cell-based; conditions: Staphylococcus aureus
Method: as §4

P. aeruginosa A9843 [7] = assay: Effect of inoculum size on MIC, serial tube dilution (Nutrient Broth); type: cell-based; conditions: for MIC ratio b/a: inoculum 5.3 × 10^5 / 5.3 × 10^4 cell/ml; for MIC ratio c/a: inoculum 5.3 × 10^6 / 5.3 × 10^4 cell/ml
Method: (§5) The effect of inoculum size of the MIC and MBC (Minimum Bacteriacidal Concentration) of BB-P598 against P. aeruginosa A9843 also was determined. The MIC's were determined by the serial tube dilution method in Nutrient Broth using four levels of inoculum size (5.3×10^3, 5.3×10^4, 5.3×10^5 and 5.3×10^6 cells/ml), along with sulbenicillin as a reference standard.

E. coli = assay: Tube dilution (Nutrient broth), E. coli; type: cell-based; conditions: Escherichia coli
Method: as §4

P. aeruginosa A9843 [8] = assay: Effect of inoculum size on MBC and MBC/MIC ratio; type: cell-based; conditions: Table 5; for MBC: Pseudomonas aeruginosa, 99% killed
Method: as §5
Subsequent to the above MIC determinations, aliquots from the non-turbid tubes were added to Nutrient Agar plates to determine the MBC value. The MBC was assigned to the lowest concentration which killed 99% of the original cell population.

S. pyogenes = assay: Tube dilution (Nutrient broth), S. pyogenes; type: cell-based; conditions: Streptococcus pyogenes, Sp-3 S. pyogenes A9604, Table 3
Method: as §4

E. cloacae = assay: Tube dilution (Nutrient broth), E. cloacae; type: cell-based; conditions: Enterobacter cloacae, El-1 E. cloacae A9656, Table 3
Method: as §4

K. pneumoniae = assay: Tube dilution (Nutrient broth), K. pneumoniae; type: cell-based; conditions: Klebsiella pneumoniae
Pseudomonas = assay: Agar dilution, activity against Pseudomonas strains; type: cell-based
Method: (§6) The Minimum Inhibitory Concentrations (MIC) for sodium 6-[D-(-)-α-phenyl-α-(7-hydroxy-4-oxo-4H-pyrimido[1,2-b]pyridazin-3-ylcarboxamido)acetamido]penicillanate (BB-P598) and sulbenicillin were determined by the serial twofold agar dilution method using Steers' apparatus on Mueller-Hinton agar plates against 31 test organisms for the primary screening (Table 1) and also against 61 strains of Pseudomonas aeruginosa for the secondary evaluation (Table 2).

[9] = test system: S. aureus and the Gram-negative organisms except Pseudomonas; assay: Agar dilution, activity against S. aureus and Gram-negative organisms except Pseudomonas; type: cell-based; conditions: most of the 6 strains of S. aureus and 19 Gram-negative strains except Pseudomonas
Method: as §6

[10] = Pa-13 P. aeruginosa A9843, Table 3
[11] = Pa-19 P. aeruginosa A20229, Table 3
[12] = Pa-57 P. aeruginosa A20546, Table 3
[13] = Sa-2 S. aureus Smith +50% serum, Table 3
[14] = Sa-11 S. aureus BX-1633 A9606, Table 3
[15] = Sa-44 S. aureus A15097, Table 3
[16] = Pseudomonas aeruginosa, A9843, inoculum 5.3 × 10^4 cell/ml, Nutrient Broth, Table 4, read-out: MIC (a)
[17] = Pseudomonas aeruginosa, A9843, inoculum 5.3 × 10^4 cell/ml, Table 5, read-out: MIC
[18] = Pseudomonas aeruginosa, A9843, inoculum 5.3 × 10^6 cell/ml, Nutrient Broth, Table 4, read-out: MIC (c)
[19] = A9843, inoculum 5.3 × 10^3 cell/ml
[20] = A9843, inoculum 5.3 × 10^4 cell/ml
[21] = Kp-3 K. pneumoniae A9977, Table 3
[22] = Kp-4 K. pneumoniae A15130, Table 3

CC1(C)S[C@@H]2[C@H](NC(=O)C(c3ccccc3)S(=O)(=O)O)C(=O)N2[C@H]1C(=O)O (stereo partly drawn) [Sulbenicillin, reference compound]
Survival/Tested (E. coli Juhl [1]; 1.6 mg/kg sc): 0/5
Survival/Tested (E. coli Juhl [1]; 6.3 mg/kg sc): 1/5
Survival/Tested (E. coli Juhl [1]; 25 mg/kg sc): 5/5
Survival/Tested (E. coli Juhl [1]; 100 mg/kg sc): 5/5
ED50 (E. coli Juhl [1]): 9.5 mg/kg
MIC (E. coli Juhl [2]): 25 µg/mL
MIC (S. enteritidis): 1.6 µg/mL (≈ 3.86 µM)
MIC (S. marcescens): 25 µg/mL (≈ 60.3 µM)
MIC (S. aureus Smith [3]): 6.3 µg/mL
MIC (P. aeruginosa; [10]): 25 µg/mL (≈ 60.3 µM)
MIC (P. aeruginosa; [11]): > 100 µg/mL
MIC (P. aeruginosa; [12]): 25 µg/mL (≈ 60.3 µM)
MIC (P. morganii): 12.5 µg/mL (≈ 30.2 µM)
MIC (P. mirabilis): 0.8 µg/mL (≈ 1.93 µM)
potency against Pseudomonas aeruginosa (in words) (Pseudomonas aeruginosa): only a relatively low potency
MIC (D. pneumoniae): 0.08 µg/mL (≈ 0.193 µM)
Survival/Tested (P. aeruginosa A9843 [4]; 1.6 mg/kg sc): 0/5
Survival/Tested (P. aeruginosa A9843 [4]; 6.3 mg/kg sc): 0/5
Survival/Tested (P. aeruginosa A9843 [4]; 25 mg/kg sc): 0/5
Survival/Tested (P. aeruginosa A9843 [4]; 100 mg/kg sc): 2/5
Survival/Tested (P. aeruginosa A9843 [4]; 400 mg/kg sc): 4/5
ED50 (P. aeruginosa A9843 [4]): 140 mg/kg
Survival/Tested (S. aureus Smith [5]; 0.4 mg/kg sc): 0/5
Survival/Tested (S. aureus Smith [5]; 1.6 mg/kg sc): 0/5
Survival/Tested (S. aureus Smith [5]; 6.3 mg/kg sc): 5/5
Survival/Tested (S. aureus Smith [5]; 25 mg/kg sc): 5/5
ED50 (S. aureus Smith [5]): 3.1 mg/kg
MIC (P. aeruginosa A9843 [6]): 25 µg/mL
MIC (S. aureus; [13]): 3.1 µg/mL (≈ 7.48 µM)
MIC (S. aureus; Sa-2 S. aureus Smith A9537, Table 3): 3.1 µg/mL (≈ 7.48 µM)
MIC (S. aureus; [14]): 12.5 µg/mL (≈ 30.2 µM)
MIC (S. aureus; [15]): 25 µg/mL (≈ 60.3 µM)
MIC (P. aeruginosa A9843 [7]; [16]): 50 µg/mL (≈ 121 µM)
MIC (P. aeruginosa A9843 [7]; [17]): 50 µg/mL (≈ 121 µM)
MIC (P. aeruginosa A9843 [7]; [18]): > 400 µg/mL
MIC (P. aeruginosa A9843 [7]; inoculum 5.3 × 10^3 cell/ml, Table 5): 25 µg/mL (≈ 60.3 µM)
MIC ratio b/a (P. aeruginosa A9843 [7]; Table 4): 4
MIC ratio c/a (P. aeruginosa A9843 [7]; Table 4): > 8
MIC (E. coli; Ec-1 E. coli NIHJ, Table 3): 6.3 µg/mL (≈ 15.2 µM)
MIC (E. coli; Ec-58 E. coli A9675, Table 3): 100 µg/mL (≈ 241 µM)
MBC (P. aeruginosa A9843 [8]; [19]): 100 µg/mL
MBC (P. aeruginosa A9843 [8]; [20]): 200 µg/mL
MBC/MIC (P. aeruginosa A9843 [8]; inoculum 5.3 × 10^3 cell/ml): 4
MBC/MIC (P. aeruginosa A9843 [8]; inoculum 5.3 × 10^4 cell/ml): 4
MIC (S. pyogenes): 0.31 µg/mL (≈ 0.748 µM)
MIC (E. cloacae): 50 µg/mL (≈ 121 µM)
MIC (K. pneumoniae; [21]): 6.3 µg/mL (≈ 15.2 µM)
MIC (K. pneumoniae; [22]): > 100 µg/mL

CC1(C)S[C@@H]2[C@H](NC(=O)[C@H](NC(=O)c3cnc4ccc(O)nn4c3=O)c3ccccc3)C(=O)N2[C@H]1C(=O)O [BB-P598, sodium 6-[D-(-)-α-phenyl-α-(7-hydroxy-4-oxo-4H-pyrimido[1,2-b]pyridazin-3-ylcarboxamido)acetamido]penicillanate]
Survival/Tested (E. coli Juhl [1]; 1.6 mg/kg sc): 0/5
Survival/Tested (E. coli Juhl [1]; 6.3 mg/kg sc): 1/5
Survival/Tested (E. coli Juhl [1]; 25 mg/kg sc): 2/5
Survival/Tested (E. coli Juhl [1]; 100 mg/kg sc): 3/5
ED50 (E. coli Juhl [1]): 40 mg/kg
MIC (E. coli Juhl [2]): 25 µg/mL
mean % relative activity to sulbenicillin (Pseudomonas; 6 strains of Pseudomonas in Table 1): 713%
activity relative to sulbenicillin (in words) (Pseudomonas; Pseudomonas): significantly more active than sulbenicillin
MIC (S. enteritidis): 3.1 µg/mL
MIC (S. marcescens; Sm-1 S. marcescens A20019, Nutrient broth, Table 3, read-out: MIC): 50 µg/mL
MIC (S. aureus Smith [3]): 3.1 µg/mL
MIC (P. aeruginosa; [10]): 6.3 µg/mL
MIC (P. aeruginosa; [11]): 6.3 µg/mL
MIC (P. aeruginosa; [12]): 3.1 µg/mL
MIC (P. morganii; Pg-8 P. morganii A15153, Nutrient broth, Table 3, read-out: MIC): > 100 µg/mL
MIC (P. mirabilis): 6.3 µg/mL
MIC (D. pneumoniae): 0.01 µg/mL
Survival/Tested (P. aeruginosa A9843 [4]; 1.6 mg/kg sc): 0/5
Survival/Tested (P. aeruginosa A9843 [4]; 6.3 mg/kg sc): 1/5
Survival/Tested (P. aeruginosa A9843 [4]; 25 mg/kg sc): 1/5
Survival/Tested (P. aeruginosa A9843 [4]; 100 mg/kg sc): 3/5
ED50 (P. aeruginosa A9843 [4]): 54 mg/kg
activity relative to sulbenicillin (in words) [9]: equal to or less active than sulbenicillin
Survival/Tested (S. aureus Smith [5]; 1.6 mg/kg sc): 0/5
Survival/Tested (S. aureus Smith [5]; 6.3 mg/kg sc): 5/5
Survival/Tested (S. aureus Smith [5]; 25 mg/kg sc): 5/5
Survival/Tested (S. aureus Smith [5]; 100 mg/kg sc): 5/5
ED50 (S. aureus Smith [5]): 3.1 mg/kg
MIC (P. aeruginosa A9843 [6]): 6.3 µg/mL
MIC (S. aureus; [13]): 1.6 µg/mL
MIC (S. aureus; [14]): 50 µg/mL
MIC (S. aureus; [15]): 100 µg/mL
MIC (P. aeruginosa A9843 [7]; Pseudomonas aeruginosa, A9843, inoculum 5.3 × 10^3 cell/ml, Nutrient Broth, Table 4, read-out: MIC): 6.3 µg/mL
MIC (P. aeruginosa A9843 [7]; Pseudomonas aeruginosa, A9843, inoculum 5.3 × 10^3 cell/ml, Table 5, read-out: MIC): 6.3 µg/mL
MIC (P. aeruginosa A9843 [7]; [16]): 12.5 µg/mL
MIC (P. aeruginosa A9843 [7]; [17]): 12.5 µg/mL
MIC (P. aeruginosa A9843 [7]; Pseudomonas aeruginosa, A9843, inoculum 5.3 × 10^5 cell/ml, Nutrient Broth, Table 4, read-out: MIC (b)): ≤ 25 µg/mL
MIC (P. aeruginosa A9843 [7]; [18]): > 100 µg/mL
MIC ratio b/a (P. aeruginosa A9843 [7]; Table 4): 2
MIC ratio c/a (P. aeruginosa A9843 [7]; Table 4): > 8
MIC (E. coli; Ec-1 E. coli NIHJ, Table 3): 6.3 µg/mL
MIC (E. coli; Ec-58 E. coli A9675, Table 3): 50 µg/mL
MBC (P. aeruginosa A9843 [8]; [19]): 50 µg/mL
MBC (P. aeruginosa A9843 [8]; [20]): > 100 µg/mL
MBC/MIC (P. aeruginosa A9843 [8]; inoculum 5.3 × 10^3 cell/ml): 8
MBC/MIC (P. aeruginosa A9843 [8]; inoculum 5.3 × 10^4 cell/ml): > 8
MIC (S. pyogenes): 0.08 µg/mL
MIC (E. cloacae): 100 µg/mL
MIC (K. pneumoniae; [21]): 12.5 µg/mL
MIC (K. pneumoniae; [22]): > 100 µg/mL

CC1(C)S[C@@H]2[C@H](NC(=O)C(C(=O)O)c3ccccc3)C(=O)N2[C@H]1C(=O)O (stereo partly drawn) [Carbenicillin, reference compound]
potency against Pseudomonas aeruginosa (in words) (Pseudomonas aeruginosa): only a relatively low potency
